Source: a melting point compilation (Tetko et al.; mined from patent text by program, amines drawn as free bases though some values may be those of a salt)

In the case of `CCC(=O)OCC1OC(n2cnc3c(OC)nc(N)nc32)C(O)C1O` (stereo not given), the melting point is reported as 124 °C. Molecule `COc1ccc(OC)c(NC(=O)NCC2(c3ccccc3)CCCCC2)c1` has a melting point of 164 to 166 °C. `CCN(CC)CCNC(=O)c1c2cc(I)ccc2nc2ccc(I)cc12` gave a melting point of 209 to 211 °C. Work on `COc1ccc(C2C(Oc3ccccc3)C(=O)N2c2ccc(C(=O)O)cc2)cc1` (stereo not given) yielded a melting point of 268 °C. For `C#CCOC(=O)c1ccc(O)cc1O`, the melting point was 104 to 106 °C. For `CCCCOC(=O)c1ccc(Cl)nn1`, the melting point was 110 to 111 °C. In the case of `Cn1ccc(=O)c2cc(F)ccc21`, the melting point is reported as 88 to 89 °C. With `O=c1c(Cc2ccccc2)cn(-c2ccc(F)cc2)c2ncccc12` the melting point was 208 to 209 °C. `CC(C)(CO)Nc1ccc2c(c1)C(=O)c1ccccc1C2=O` gave a melting point of 218 to 220 °C. Work on `CC(=O)SC[C@H](NC(=O)C(C)C)C(=O)NCCSC(=O)c1ccccc1` yielded a melting point of 174 to 176 °C. In the case of `CC(=O)NC1CCN(Cc2ccccc2)C1C` (stereo not given), the melting point is reported as 51 to 54 °C. In the case of `COc1cc2c(c(Cl)c1Cl)SC(c1ccccc1)C2=O` (stereo not given), the melting point is reported as 228 to 229 °C. Molecule `O=C(O)c1ccc(NCCCCCCCc2ccccc2)cc1` has a melting point of 123 to 126 °C. Molecule `COC(=O)C(C(=O)OC)c1cccc2c1NC(=O)C2=O` has a melting point of 137 to 140 °C. Work on `Cc1ccc2c(NC(=NC#N)NC(NC(=O)Cc3ccc(Cl)cc3)C(C)(C)C)cccc2n1` (stereo not given) yielded a melting point of 198 to 199 °C. `O=C(O)C1(c2ccc(Nc3nc(N4CCC(O)CC4)nc4c3CCC4)cc2)CCC1` gave a melting point of 165 to 167 °C. `O=C(O)c1ccc(-c2nc(-c3ccccn3)cs2)cc1` gave a melting point of over 300 °C. For `CCCc1nc(C#N)c(C#N)nc1Oc1ccccc1`, the melting point was 130 to 132 °C. For `CCc1c(C)c(NC(=O)CC(C)(C)C)c(C)c2c1OCC2c1ccc(C(C)C)cc1` (stereo not given), the melting point was 135 to 136 °C. Molecule `Cc1nn(C2CCCC2O)c(N)c1C#N` (stereo not given) has a melting point of 157 to 159 °C. With `O=C(N[C@H](CC1CCCCC1)CN1CCN(c2ncccn2)CC1)C1CCCCC1` the melting point was 121 to 123 °C. Work on `O=C(c1ccccc1)c1ccc(OC(=O)C2CC2)cc1` yielded a melting point of 81 to 81.5 °C. `COC(=O)c1ccc(CCc2cnc3nc(N)nc(O)c3c2)cc1` gave a melting point of over 300 °C. With `Cc1nc(Cl)c2c(n1)N(c1c(C)cc(Br)cc1C)C(=O)C2C` (stereo not given) the melting point was 148 to 150 °C. With `O=S1(=O)c2cccc3cccc(c23)N1CCCN1CC=C(c2ccccc2)CC1` the melting point was 88 °C. With `CC(=O)N(C(=O)OC(C)(C)C)c1ccc(-c2nc3n(Cc4c(F)cccc4F)c(C)c(Cc4ccccc4)c(=O)n3c2C)cc1` the melting point was 176 to 177 °C. With `CCCCC(NS(=O)(=O)c1ccc(Cl)cc1)C(=S)Nc1ccc(CCC(=O)OC)cc1` (racemic) the melting point was 87 to 89 °C. `COc1cc(OCCN2CCOCC2)ccc1/C=C/c1cc(/C=C/c2ccc3cc[nH]c3c2)n[nH]1` gave a melting point of 113 to 122 °C. In the case of `O=C(O)c1cc(C#Cc2ccccc2)c(C(=O)O)cc1C#Cc1ccccc1`, the melting point is reported as over 360 °C. `O=S(=O)(c1ccc2ccccc2c1)N1CCOc2ccc(CCCI)cc21` gave a melting point of 87 to 88 °C. In the case of `CCOC(=O)c1c(C)nc2scnc2c1NC(C)C`, the melting point is reported as 48 to 50 °C. Molecule `CC1(C)Oc2cc(Br)c(Br)cc2O1` has a melting point of 93 to 94 °C. `COc1ccc(Sc2nc(-c3ccccc3)cnc2N)cc1` showed a melting point of 116 to 118 °C. `Oc1ccc(O)c(-c2ccc(Cl)cc2Cl)c1` showed a melting point of 82 to 86 °C. `COc1cc2ncc(C#N)c(Nc3ccc(F)c(Cl)c3)c2cc1NC(=O)C=CCN(C)CCO` showed a melting point of 210 to 214 °C. Molecule `CCS(=O)(=O)Oc1cc2c(C)c(CCN3CCN(c4ccccc4OC)CC3)c(=O)oc2cc1OC` has a melting point of 148 to 150 °C. For `CCC(C)c1ccc(N(Cc2ccccc2)C(=N)N)cc1` (stereo not given), the melting point was 65 to 67 °C. Molecule `O=c1oc2ccccc2cc1S(=O)(=O)Cc1ccc(Cl)cc1` has a melting point of 195 to 196 °C. `CSCC(O)C1(Sc2ccccc2)C(=O)N2C1CCOC2(C)C` (stereo not given) gave a melting point of 83 to 85 °C. Work on `O=C(C1=C(c2ccccc2)c2ccccc2S1=O)c1ccc(O)cc1` (stereo not given) yielded a melting point of 140 to 145 °C. `COC(=O)[C@H](Cc1ccc([N+](=O)[O-])cc1)NC(=O)C1(CCCCS(C)(=O)=O)CCCC1` showed a melting point of 40 to 44 °C. Molecule `OC/C=C/C=C/c1ccc(OCC(F)(F)C(F)F)cc1` has a melting point of 95 to 97 °C. `CCOC(=O)c1ncc2[nH]c3ccc(C(=O)OCc4ccccc4)cc3c2c1CC` showed a melting point of 212 to 215 °C. `CCOC(=O)C1(F)C(=O)NC(=O)NC1O/N=C\c1ccc(C)o1` (stereo not given) gave a melting point of 163 to 164 °C. In the case of `CCc1nc2cc(N3CCN(C)CC3)nc(CC)n2n1`, the melting point is reported as 87 to 88 °C. With `NC(=O)NCc1c[nH]c(=S)n1[C@H]1CCc2c(F)cc(F)cc2C1` the melting point was 258 to 260 °C. `COC(=O)CCC1=C(N)CCC1=O` gave a melting point of 223 to 224 °C. `O=[N+]([O-])c1cnccc1NCc1ccc(F)cc1` showed a melting point of 137 °C. Work on `Cn1ncc2nn(-c3cc(C(F)(F)F)ccc3F)c(=O)cc21` yielded a melting point of 190 to 195 °C. For `CCOC(=O)c1ccc2c(c1)N(CCN(C)C)C(=O)c1cc(C(C)C)cc(C(C)C)c1O2`, the melting point was 97 to 98 °C. `CCOC(=O)C(CBr)=NOC(=O)c1ccc(Cl)cc1` gave a melting point of 82 to 84.5 °C. Molecule `O=C(c1ccc(Cl)cc1)N1CCc2cc(S(=O)(=O)N3CCN(c4cccc(Cl)c4)CC3)ccc21` has a melting point of 191 to 192 °C. For `CC(=O)NC1(c2ccc(C(C)N3CCN(c4ncccn4)CC3)cc2)CC1` (stereo not given), the melting point was 124 to 125 °C. For `N=C(N)c1cccc(Oc2cc(C(N)=O)cc(Oc3cccc(C(=N)N)c3)n2)c1`, the melting point was over 210 °C. `Cc1oc(-c2ccccc2)nc1COc1nn(Cc2ccc(Oc3ccccc3)cc2)cc1CCC(=O)O` showed a melting point of 120 to 121 °C. `CNc1ccccc1CS(=O)c1nccn1-c1cc(C)ccn1` (stereo not given) gave a melting point of 112 to 114 °C. `CCCCc1cn(CC(C)C)c(=O)n1Cc1ccc(-c2ccccc2-c2nnn[nH]2)nc1` showed a melting point of 160 to 162 °C. Molecule `CC(=O)C(=Cc1ccc2c(c1)OCO2)C(=O)OCc1ccccc1` has a melting point of 137 to 138 °C. With `CS(=O)(=O)Nc1ccc2nc(CCl)ccc2c1` the melting point was 160 to 162 °C. `COc1ccc(C2=Cc3ccc(OCc4ccccc4)cc3OC2)cc1` gave a melting point of 152 to 154 °C. In the case of `CSc1ccc(NC(=O)C2C(=O)N(c3ccccc3)N=C2C)cc1` (stereo not given), the melting point is reported as 196 to 199 °C. With `Cn1c(=O)[nH]c2cc(CN3CCN(C(c4ccccc4)c4ccccc4)CC3)ccc21` the melting point was 246 °C. Molecule `COc1cc(OC)c2nccc(Cl)c2c1` has a melting point of 115 to 116 °C. For `COc1cc(OC)c(C(C)=O)c(O)c1C`, the melting point was 143 to 144 °C. For `CCCSc1sc(C(N)=O)c2c1-c1nn(C(C)=O)cc1CC2`, the melting point was 219 to 220 °C. With `O=C(NCc1ccc(Br)cc1)c1c(F)cccc1F` the melting point was 142 °C. In the case of `CC(=N)Nc1cccc(C#N)c1`, the melting point is reported as 228 to 230 °C. `CC(C)C[C@H](NC(=O)CCCc1ccccc1)C(=O)N[C@@H](Cc1ccccc1)C(=O)CSCc1ccco1` gave a melting point of 106 to 108 °C. With `CCCCCCCCCCCCCCCC(=O)Nc1ccc(O)c(C(C)=O)c1` the melting point was 120 to 122 °C. In the case of `COc1ccc(S(=O)(=O)N2C(=O)C(c3ccccc3OC)(N3Cc4cc(OC)c(OC)cc4C[C@H]3C(=O)N(C)C)c3cc(Cl)ccc32)c(OC)c1` (stereo not given in full), the melting point is reported as 157 °C. In the case of `CCC1(CC)NC(=O)Oc2ccc(-c3cccc(Cl)c3)cc21`, the melting point is reported as 150 to 151 °C. Work on `O=c1[nH]c2cc(Cl)cc(Cl)c2c(O)c1Sc1ccc(OCc2ccccc2)cc1` yielded a melting point of 224 to 227 °C. `CC(Oc1cc(F)cc(F)c1)C1=NCCN1` (stereo not given) showed a melting point of 134 °C. `CCNS(=O)(=O)c1cccc(NC(=O)c2cnn3c(C(F)F)cc(-c4ccc(C(F)(F)F)cc4)nc23)c1` showed a melting point of 259 °C. For `C[C@]12C[C@H](c3ccc(OCCCCCCl)cc3)[C@@H]3c4ccc(O)cc4CC[C@H]3[C@@H]1CC[C@@H]2O`, the melting point was 165 °C. `CC(C)N(CCC1(c2ccccc2)C(=O)NCN2CCCCC21)C(C)C` (stereo not given) gave a melting point of 164 to 166 °C. `CC[C@@H](CNc1ccc(C)cc1C)NS(=O)(=O)c1c(N)cc(Cl)cc1Cl` gave a melting point of 151 °C. In the case of `COc1ccc(S(=O)(=O)N2CSCC2=O)cc1`, the melting point is reported as 129 to 130 °C. `COc1ccc(-c2ccc(F)cc2F)cc1` gave a melting point of 73 to 76 °C. In the case of `CCn1c(=O)[nH]c2cc(NC(C)=O)ccc21`, the melting point is reported as 247 to 249 °C. Molecule `COc1nc2cc([N+](=O)[O-])c(C)c(C(=O)Nc3ccccc3)c2nc1OC` has a melting point of 238 to 240 °C. Molecule `COc1cc2c(cc1OC)CN(CCNc1ccc(NC(=O)c3cccc4c(=O)c5cccc(OC)c5[nH]c34)cc1)CC2` has a melting point of 228 to 234 °C. Molecule `COc1c(C)cc(-c2[nH]c3ccc(NS(=O)(=O)c4ccc(C)cc4)cc3c2C)cc1C` has a melting point of 192 to 194 °C. For `CCOC(=O)C1=C(C(=O)OCC)C(c2cc(OC)c(OC)c(OC)c2)C(C(=O)OCC)=C(C)N1` (stereo not given), the melting point was 134 °C. Molecule `COC(=O)C1=C(C)NN=C(c2ccco2)C1c1ccccc1Cl` (stereo not given) has a melting point of 195 °C. In the case of `Cc1[nH]c2ccccc2c1Cc1ccncc1`, the melting point is reported as 126 to 127 °C. With `C[C@]12CCC(=O)N[C@@H]1CCc1cc(C=O)ccc12` the melting point was 185 to 189 °C. `CSC(=NCC(C)C)Nc1cc(Cl)cc(Cl)c1` showed a melting point of 150 °C. In the case of `COc1ccc(C(=O)Nc2ccc3ccc(Oc4ccccc4C)nc3n2)cc1`, the melting point is reported as 153 °C. In the case of `CCC1(C)CC(NC(=O)C(=O)NC2CC(C)(CC)N(C(C)=O)C(C)(CC)C2C)C(C)C(C)(CC)N1C(C)=O` (stereo not given), the melting point is reported as 164 °C. In the case of `CC(C)(O)CC(N)C1(c2ccc(Cl)cc2)CCC1` (stereo not given), the melting point is reported as 60 to 62 °C. Work on `O=S1(=O)N2CN3CN1CP(C3)C2` yielded a melting point of 274 to 275 °C. In the case of `CC(C)(C1OCCO1)C(O)C(Cc1ccc(Cl)cc1Cl)n1cncn1` (stereo not given), the melting point is reported as 178 to 181 °C. Molecule `CCN(CC)CCCC1CCCN(C(=O)N2c3ccccc3NC(=O)c3cccnc32)C1` (stereo not given) has a melting point of 123 to 125 °C. For `CCn1cc(C(=O)O)c(=O)c2cc([N+](=O)[O-])c(-c3cc(C)nc(C)c3)cc21`, the melting point was 289 to 291 °C. Molecule `CC12CCCc3cc(Nc4ncc(C(=O)O)cn4)cc(c31)CCC2` has a melting point of over 300 °C. `Cc1c(C(=O)c2cc(O)c(O)c([N+](=O)[O-])c2)[nH]c2ccccc12` gave a melting point of 212 to 214 °C. In the case of `CN(C)c1ccc(-c2ccc3c(c2)CC[C@H]2N(C)C(=O)CC[C@]32C)cc1`, the melting point is reported as 197 to 202 °C. With `CC(C)c1cc(Oc2c(Cl)cc(C(F)(F)F)cc2Cl)n[nH]1` the melting point was 98 to 101 °C. With `CCOCc1cc(OC)c(-c2ccc(C[C@H](NC(=O)c3c(F)cccc3Cl)C(=O)O)cc2)c(OC)c1` the melting point was 182 to 184 °C.
